Consider one molecule from patent US7427599B2, “Biologically active peptide comprising Tyrosyl-seryl-valine(YSV)” (CMS Peptides Patent Holding Company Limited, priority 2003, dated 2008).

Test [1] concerns T lymphocytes (spleen lymphocyte suspension). Kind of test: Effect of YSV on T lymphocyte transformation in vitro (ConA, MTT). The test is classed as cell-based, BALB/c Mice. The note with it: for X ± SD (OD), T lymphocytes transformation: 68 hrs, MTT OD570 nm, positive control 0.14 ± 0.00. The protocol: Healthy mice were sacrificed by cervical dislocation. The spleens were isolated and dispersed aseptically. The spleen lymphocyte suspension washed and adjusted to a cell density of 5×10^6/ml with RPMI-1640 culture medium containing 10% fetal bovine serum. YSV was diluted with RPMI-1640 culture medium into various concentrations: 2 μg/ml, 0.4 μg/ml, 0.08 μg/ml, 0.016 μg/ml. Con A working solution was adjusted to 1 mg/ml with RPMI-1640 culture medium.
The reagents were placed onto a 96 wells cell culture plate according to the following: 100 μl/well lymphocyte suspension, 20 μl/well ConA, and 100 μl/well YSV solution of various concentrations, 6 parallel wells for each concentration; 100 μl/well lymphocyte suspension and 120 μl/well RPMI-1640 culture medium (containing 10% FBS) were added to 12 parallel wells as negative control; 100 μl/well lymphocyte suspension, 100 μl/well RPMI-1640 culture medium (10% FBS) and 20 μl/well ConA were added to 12 parallel wells as positive control.
The cells were incubated for 68 hrs at 37° C., 5% CO2, and then pelleted by centrifugation at 150 g for 10 minutes. After the supernatant was removed, 50 μl/well MTT of 1 mg/ml in RPMI-1640 was added to the cell pellet and the cells were re-suspended by shaking for 2 minutes. The incubation was continued for 4 hours. The supernatant was removed after centrifugation at 150 g for 10 minutes. After blotted dry with filter paper, the cells were mixed with 120 μl 40 mM HCl-2-propanol and shaken for 3 minutes. OD570 nm of each well referenced at 630 nm was obtained with an ELISA reader.

Test [2] concerns Human liver cancer BEL7402 cells. Kind of test: Proliferation of cultured human liver cancer BEL7402 cells in vitro (MTT). In kind it is cell-based. The note with it: for % inhibition / OD value: 48 hours; for OD value: MTT OD570nm, negative control 0.36 ± 0.01. The protocol: Human liver cancer BEL7402 cells at logarithmic growth phase were detached by incubating for 2 to 3 minutes with phosphate buffer saline pH7.4 (PBS) containing 0.05% trypsin and 0.02% EDTA. The cells were examined by inverted phase contrast microscopy. The supernatant was removed after cytoplasm pyknosis and dilatation of cell compartment were observed. A few milliliters of RPMI-1640 culture medium with 10% FBS was added to terminate the digestion. The cells were harvested by gently blowing with a pipette. The suspended cells were collected by centrifugation at 150 g for 10 minutes, and washed twice by cold D-Hank's solution with re-suspension and centrifugation. The washed cells were re-suspended in RPMI-1640 medium with 10% FBS and adjusted to density of 5×10^4/ml. The treated BEL7402 cells were placed onto a 96 wells cell culture plate, 100 μl/well. The cells were incubated for 24 hours at 37° C., 5% CO2 for re-activation and attachment.
The experiment included three testing groups with different concentrations of YSV and a negative control. The final concentrations of YSV in culture medium were 20 μg/ml, 10 μg/ml, and 5 μg/ml. The YSV solution was replaced by RPMI-1640 culture medium with 10% FBS in the negative control group. Each group contained five parallel wells. The cells were incubated for 48 hours at 37° C., 5% CO2.
The cells were then pelleted by centrifugation at 150 g for 10 minutes. After the supernatant was removed, 100 μl/well MTT of 0.5 mg/ml in RPMI-1640 was added to the cell pellets and the cells were re-suspended by shaking for 2 minutes. Incubation was continued for 4 hours. The supernatant was removed after centrifugation at 150 g for 10 minutes. After blotted dry by filter paper, 100 μl/well 40 mM HCl-2-propanol was added to the cell pellets and shaken for 3 minutes. OD570nm of each well referenced at 630 nm was obtained by using ELISA reader.

The subject of the next test is melanoma B16. Description: Growth of C57BL/6 mice-transplanted melanoma B16. In kind it is in vivo. The note with it: for The Inhibition rate (%) / Tumor weight: 20 consecutive days; for Tumor weight: saline 2.64 ± 0.68. How it is done:
B16 cells were maintained in RPMI-1640 medium with 10% FBS at 37° C., 5% CO2. Mouse B16 melanoma culture at log phase was adjusted to 2.5×10^6/ml with Hank's solution. 0.2 ml of this was subcutaneously injected to the right axilla of healthy C57 BL/6 mice to form the melanoma mice model. […] From the next day after the tumor implantation, the general conditions of the mice and the growth of the tumor were observed daily. On the next day after the last test substance administration, the tumors were extirpated and the weights of tumor were measured. […] The results were presented as arithmetic mean ±SD. Statistical analysis was performed using the ANOVA test of the SPSS software.

Peptide text beside a SMILES is read from it.

In general, % inhibition refers to the change of the read-out against control, counted positive when it falls.

Consider `CC(C)[C@H](NC(=O)[C@H](CO)NC(=O)[C@@H](N)Cc1ccc(O)cc1)C(=O)O` [YSV, L-Tyrosyl-L-seryl-L-valine] (H-Tyr-Ser-Val-OH), for which the “stimulation of T lymphocyte transformation activity in vitro (conclusion)” value in test [1] (0.016 μg/ml to 2 μg/ml, p<0.001) is “able to stimulate the T lymphocyte transformation activity in vitro with statistical significance”. Moreover, the “X ± SD (OD), T lymphocytes transformation” value in test [1] (YSV 0.016 μg/ml with ConA) turned out to be 0.21 ± 0.01 OD; in test [1] (YSV 0.08 μg/ml with ConA), 0.23 ± 0.00 OD; in test [1] (YSV 0.4 μg/ml with ConA), 0.18 ± 0.01 OD; in test [1] (YSV 2 μg/ml with ConA) it was 0.18 ± 0.00 OD. Moreover, in test [2] (5 μg/ml to 20 μg/ml, p<0.05), the “inhibition of growth of BEL7402 cells in vitro (conclusion)” value is “able to inhibit the growth of human hepatocellular carcinoma BEL7402 cells in vitro”. The “% inhibition” value in test [2] (5 μg/ml) was found to be 9.8%; in test [2] (10 μg/ml), 38.0%; in test [2] (20 μg/ml) it was 23.7%. For the same molecule, the OD value worked out at 0.31 ± 0.01 in test [2] (5 μg/ml), 0.22 ± 0.01 in test [2] (10 μg/ml) and 0.27 ± 0.01 in test [2] (20 μg/ml). Moreover, the “The Inhibition rate (%)” value with melanoma B16 (320 μg/kg/day intraperitoneal) worked out at 39.6%; in the test on melanoma B16 (640 μg/kg/day intraperitoneal), 44.6%. Also, the “Tumor weight” value is 1.60 ± 1.21 g with melanoma B16 (320 μg/kg/day intraperitoneal) and 1.47 ± 0.92 g in the test with melanoma B16 (640 μg/kg/day intraperitoneal). Besides, the “inhibition of growth of B16 melanoma in C57BL/6 mice (conclusion)” value in the test on melanoma B16 (suitable dosage, p<0.05 vs saline) is recorded as “able to inhibit the growth of B16 melanoma in C57BL/6 mice”.
